Experimental data from ChEMBL document CHEMBL1126313, “Cysteine protease inhibition by azapeptide esters” (J Med Chem, 1992).

Molecular target: T1, Papain (Carica papaya) (UniProt P00784)
T1 sequence (whole entry): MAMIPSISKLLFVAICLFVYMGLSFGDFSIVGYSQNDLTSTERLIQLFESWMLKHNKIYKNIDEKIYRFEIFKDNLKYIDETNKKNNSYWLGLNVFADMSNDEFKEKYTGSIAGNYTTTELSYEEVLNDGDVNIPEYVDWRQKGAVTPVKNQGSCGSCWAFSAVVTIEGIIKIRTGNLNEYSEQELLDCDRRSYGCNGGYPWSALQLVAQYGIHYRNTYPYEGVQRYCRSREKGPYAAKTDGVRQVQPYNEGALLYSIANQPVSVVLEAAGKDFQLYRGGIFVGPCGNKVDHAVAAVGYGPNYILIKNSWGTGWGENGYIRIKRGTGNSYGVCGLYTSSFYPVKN
Test: The compound was tested for Rate of Inhibition of Papain.

| ki/Ki [M⁻¹ s⁻¹] | Compound |
| --- | --- |
| 13 | COC(=O)NNC(=O)[C@H](Cc1ccccc1)NC(C)=O |
| 18 | CC(=O)N[C@@H](Cc1ccccc1)C(=O)NNC(=O)OCC(C)C |
| > 11000 | CC(=O)N[C@@H](Cc1ccccc1)C(=O)NNC(=O)Oc1ccccc1 |
| 0.02 | CC(=O)N[C@@H](Cc1ccccc1)C(=O)NN(C)C(=O)OCC(C)C |
